The results in this text go back to patent US9663533B2, “Thieno[3,2-C]pyridin-4(5H)-ones as BET inhibitors” (GlaxoSmithKline LLC, priority 2012, dated 2017).

Where a name gives a salt, the structure may show the parent alone. Some results are limits rather than exact numbers.

The first assay deals with LPS induced IL-6 secretion from human whole blood. Briefly: Quantification of LPS induced IL-6 secretion from human whole blood. Type of assay: cell-based. Conditions: LPS 200 ng/mL, 24 hours, MSD ELISA, read-out: pIC50, LPS induced IL-6 secretion (converted). An excerpt: Quantification of LPS Induced IL-6 Secretion from Human Whole Blood
Activation of monocytic cells by agonists of toll-like receptors such as bacterial lipopolysaccharide (LPS) leads to the activation of intracellular signaling pathways resulting in the production of key pro-inflammatory mediators including IL-6. Such pathways are widely considered to be central to the pathophysiology of a range of auto-immune and inflammatory disorders.
The impact of bromodomain inhibitors on IL-6 release was assessed in an LPS-stimulated human whole blood assay. Briefly, serial dilutions of test compounds were prepared in DMSO and 1 μL of the diluted compounds or vehicle (DMSO) was added to each well in a 96-well cell culture plate. Fresh blood was collected in heparinized tubes by venipuncture from volunteers with consent, and 130 uL/well was added in the culture plate already containing the compounds. The plates were then incubated for 30 min at 37° C. and 5% CO2 before the addition of 10 μl of 2.8 μg/mL LPS diluted in 1% BSA (LPS from Salmonella typhosa; Sigma L 6386 at a final concentration of 200 ng/mL). After further incubation for 24 hours at 37° C. and 5% CO2, 140 μl of PBS were added to each well. The plates were then sealed, shaken for 10 minutes and then centrifuged for 10 minutes at 2000 rpm. 100 μl of the supernatant were removed and IL-6 levels quantified using an MSD ELISA (MesoScale Discovery technology). Concentration response curves for each compound were generated and an IC50 values were calculated.
Background: In an ELISA, binding on a coated surface is turned into a signal by an enzyme label.
For the molecule `CC(Oc1cncc(-c2cn(C)c(=O)c3cc(CN4CCN(S(C)(=O)=O)CC4)sc23)c1)c1ccccn1` (racemic) [Example 3, (±)-5-methyl-2-((4-(methylsulphonyl)piperazin-1-yl)methyl)-7-(5-(1-(pyridin-2-yl)ethoxy)pyridin-3-yl)thieno[3,2-c]pyridin-4(5H)-one], the IC50 was at most 10 µM. On to `CC(Oc1cncc(-c2cn(C)c(=O)c3cc(CN4CCN(S(C)(=O)=O)CC4)sc23)c1)c1ccccc1` (stereo not drawn) [Example 1, 5-methyl-2-((4-(methylsulphonyl)piperazin-1-yl)methyl)-7-(5-(1-phenylethoxy)pyridin-3-yl)thieno[3,2-c]pyridin-4(5H)-one hydrochloride], for which the IC50 was at most 10 µM. With `Cn1cc(-c2ccnc(OCC3CCOCC3)c2)c2sc(CN3CCN(S(C)(=O)=O)CC3)cc2c1=O` [Example 7, 5-methyl-2-((4-(methylsulphonyl)piperazin-1-yl)methyl)-7-(2-((tetrahydro-2H-pyran-4-yl)methoxy)pyridin-4-yl)thieno[3,2-c]pyridin-4(5H)-one], the IC50 is at most 10 µM.

Take `CN1CCCN(Cc2cc3c(=O)n(C)cc(-c4cccc(OCc5ccccc5)c4)c3s2)CC1` [Example 40, 7-(3-(benzyloxy)phenyl)-5-methyl-2-((4-methyl-1,4-diazepan-1-yl)methyl)thieno[3,2-c]pyridin-4(5H)-one, Hydrochloride]: the IC50 was at most 10 µM. Same read-out and setting: for `CCCC[C@@H]1CN(Cc2cc3c(=O)n(C)cc(-c4ccc(OC)c(OC)c4)c3s2)CCN1` [Example 97, (R)-2-((3-butylpiperazin-1-yl)methyl)-7-(3,4-dimethoxyphenyl)-5-methylthieno[3,2-c]pyridin-4(5H)-one] the value was at most 10 µM; for `CC(=O)Nc1cc(-c2cn(C)c(=O)c3cc(CN4CCN(S(C)(=O)=O)C[C@H]4C)sc23)ccn1` [Example 119, (R)-N-(4-(5-methyl-2-((2-methyl-4-(methylsulphonyl)piperazin-1-yl)methyl)-4-oxo-4,5-dihydrothieno[3,2-c]pyridin-7-yl)pyridin-2-yl)acetamide], at most 10 µM; for `C[C@@H]1CN(S(C)(=O)=O)CCN1Cc1cc2c(=O)n(C)cc(-c3ccncc3OCC3CC3)c2s1` [Example 168, (R)-7-(3-(cyclopropylmethoxy)pyridin-4-yl)-5-methyl-2-((2-methyl-4-(methylsulfonyl)piperazin-1-yl)methyl)thieno[3,2-c]pyridin-4(5H)-one], at most 10 µM.

For the next assay, the system named is Bromodomains BRD2, BRD3, BRD4 and BRDT, mutated proteins (BD1 or BD2). Nature of the assay: TR-FRET assay: affinity of the fluoroligand for mutated versus non-mutated binding domain. Conditions: single residue mutations in the acetyl lysine binding pocket. Details: species or system Human. As for the experimental part: Binding was assessed using a time resolved fluorescent resonance energy transfer binding assay. This utilises a 6 His purification tag at the N-terminal of the proteins as an epitope for an anti-6 His antibody labeled with Europium chelate (PerkinElmer AD0111) allowing binding of the Europium to the proteins which acts as the donor fluorophore. A small molecule, high affinity binder of the bromodomains BRD2, BRD3, BRD4 and BRDT has been labeled with Alexa Fluor647 (Reference Compound X) and this acts as the acceptor in the FRET pair.
The binding of the compounds of formula (I) to Bromodomains BRD2, BRD3, BRD4 and BRDT was assessed using mutated proteins to detect differential binding to either Binding Domain 1 (BD1) or Binding Domain 2 (BD2) on the bromodomain. These single residue mutations in the acetyl lysine binding pocket greatly lower the affinity of the fluoroligand (Reference Compound X) for the mutated domain (>1000 fold selective for the non-mutated domain). Therefore in the final assay conditions, binding of the fluoroligand to the mutated domain cannot be detected and subsequently the assay is suitable to determine the binding of compounds to the single non-mutated bromodomain. […]
On to `COc1ccc2c(c1)C(c1ccc(Cl)cc1)=N[C@@H](CC(=O)NCCCCCNC(=O)CCCCCC1(C)/C(=C/C=C/C=C/C3=[N+](CCCCS(=O)(=O)O)c4ccc(S(=O)(=O)O)cc4C3(C)C)N(CCCCS(=O)(=O)[O-])c3ccc(S(=O)(=O)O)cc31)c1nnc(C)n1-2` (stereo partly drawn) [Reference Compound X], for which the “Selectivity of the fluoroligand for the non-mutated domain over the mutated domain” value is above 1000 fold.

The next assay concerns Bromodomain BRD4, mutated proteins (BD1 or BD2). Briefly: FP assay: affinity of the fluoroligand for mutated versus non-mutated binding domain. The note with it: single residue mutations in the acetyl lysine binding pocket. Details: species or system Human. As for the experimental part:
Binding was assessed using a […] binding assay. This utilises a 6 His purification tag at the N-terminal of the proteins as an epitope for an anti-6 His antibody labeled with Europium chelate (PerkinElmer AD0111) allowing binding of the Europium to the proteins which acts as the donor fluorophore. A small molecule, high affinity binder of the bromodomains BRD2, BRD3, BRD4 and BRDT has been labeled with Alexa Fluor647 (Reference Compound X) and this acts as the acceptor in the FRET pair.
The binding of the compounds of formula (I) to Bromodomain BRD4 was assessed using mutated proteins to detect differential binding to either Binding Domain 1 (BD1) or Binding Domain 2 (BD2) on the bromodomain. These single residue mutations in the acetyl lysine binding pocket greatly lower the affinity of the fluoroligand (Reference Compound X) for the mutated domain (>1000 fold selective for the non-mutated domain). Therefore in the final assay conditions, binding of the fluoroligand to the mutated domain cannot be detected and subsequently the assay is suitable to determine the binding of compounds to the single non-mutated bromodomain.
Protein Production: Recombinant Human Bromodomains [BRD4 (1-477) (Y97A) and (Y390A)] were expressed in E. coli cells (in pET15b vector) with a 6-His tag at the N-terminal. […]
Regarding `COc1ccc2c(c1)C(c1ccc(Cl)cc1)=N[C@@H](CC(=O)NCCCCCNC(=O)CCCCCC1(C)/C(=C/C=C/C=C/C3=[N+](CCCCS(=O)(=O)O)c4ccc(S(=O)(=O)O)cc4C3(C)C)N(CCCCS(=O)(=O)[O-])c3ccc(S(=O)(=O)O)cc31)c1nnc(C)n1-2` (stereo partly drawn) [Reference Compound X], the “Selectivity of the fluoroligand for the non-mutated domain over the mutated domain” value is recorded as above 1000 fold.
